Assay results as given in patent US12291503B2, “Crystalline form of compound, method for preparing the same, pharmaceutical composition and use” (Beijing Konruns Pharmaceutical Co., Ltd., priority 2019, dated 2025).
Read-outs that look alike come from different tables or passages of the source.

Key:
VEGF-R2 = VEGF-R2 (Homo sapiens, UniProt P35968); assay: IC50 against VEGF-R2; type: biochemical
NCI-H1703 cells = assay: Lung cancer subcutaneous xenotransplantation tumor model (NCI-H1703); type: in vivo, mice; details: for Tumor Inhibition Rate %: intragastric, 28 days, below line 'Micronization'
Text: NCIH-1703 cells were inoculated subcutaneously in mice to establish a lung cancer subcutaneous xenotransplantation tumor model. After 28 days of intragastric administration of the crystalline form AB to animals, tumors were taken and tumor volume data were collected.

[1] = Accelerated stability test of the crystalline form AB (40±2° C., RH 75%±5%, vials sealed and open); type: physicochemical; details: for Purity (HPLC method) Open / Purity (HPLC method) Sealed: 40±2° C., RH 75%±5%
Procedure: Accelerated stability test: the compound 1 was contained in vials, and these vials in sealed and open manners respectively were placed in closed containers (desiccators) with a relative humidity of 75%±5%; the desiccators were placed in an incubator at a temperature of 40±2° C. for 7 months; small samples were taken out at 0, 1, 2, 7 months respectively for detection.

AXL = target: T1, AXL (Homo sapiens, UniProt P30530); assay: IC50 against AXL; type: biochemical
T1 sequence (P30530 26-894): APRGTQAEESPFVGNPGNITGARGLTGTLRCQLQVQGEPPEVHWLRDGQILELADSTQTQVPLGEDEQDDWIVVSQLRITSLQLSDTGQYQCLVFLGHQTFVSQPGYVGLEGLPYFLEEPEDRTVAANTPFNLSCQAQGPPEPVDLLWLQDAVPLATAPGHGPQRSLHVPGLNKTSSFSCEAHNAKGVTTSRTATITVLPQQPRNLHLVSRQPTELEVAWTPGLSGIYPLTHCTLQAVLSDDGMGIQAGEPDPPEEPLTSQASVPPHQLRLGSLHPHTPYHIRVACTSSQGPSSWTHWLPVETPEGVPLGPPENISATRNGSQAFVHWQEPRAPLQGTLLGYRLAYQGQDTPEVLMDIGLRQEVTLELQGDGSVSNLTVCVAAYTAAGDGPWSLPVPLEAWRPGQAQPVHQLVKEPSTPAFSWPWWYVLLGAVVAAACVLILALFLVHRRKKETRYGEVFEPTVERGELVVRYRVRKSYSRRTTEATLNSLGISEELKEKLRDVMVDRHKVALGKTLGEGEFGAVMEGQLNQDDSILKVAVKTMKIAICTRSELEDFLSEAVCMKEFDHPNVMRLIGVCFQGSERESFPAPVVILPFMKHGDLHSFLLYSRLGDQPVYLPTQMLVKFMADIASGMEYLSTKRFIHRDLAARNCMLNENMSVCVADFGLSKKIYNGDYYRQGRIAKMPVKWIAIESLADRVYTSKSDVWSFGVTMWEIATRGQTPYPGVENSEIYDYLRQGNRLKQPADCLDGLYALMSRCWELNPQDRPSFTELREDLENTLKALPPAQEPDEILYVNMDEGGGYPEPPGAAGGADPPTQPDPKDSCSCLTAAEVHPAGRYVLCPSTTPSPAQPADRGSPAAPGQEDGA

MOLM-13 cells = assay: Human acute myeloid leukemia subcutaneous xenograft tumor model (MOLM-13); type: in vivo, mice
Text: Mice were inoculated subcutaneously with MOLM-13 cells and a human acute myeloid leukemia subcutaneous xenograft tumor model was established. After 14 days of intragastric administration of the crystalline form AB to animals, tumors were taken and tumor volume data were collected.

[2] = Bioavailability analysis (pharmacokinetics) of crystalline forms in mice; type: in vivo; parameters: AUClast / AUCInf: concentration or dose not given beside the values; details: gavage, suspension in CMC-Na, mean
Procedure: Drug samples of different crystalline forms of the compound 1 were added to a solution of 1 CMC-Na respectively to prepare suspensions, which were administrated to mice by gavage. Drug samples of the different crystalline forms of the compound 1 were prepared into solutions in DMSO/PEG400/water and administered intravenously to mice. After drug administration, blood samples were collected from the dorsal vein of foot at different time points. After anticoagulation with heparin sodium, plasma was extracted by centrifugation. Plasma samples were analyzed by LC-MS/MS to obtain plasma drug concentrations. Pharmacokinetic parameters were calculated by WinNonlin (Phoenix™) The results of the bioavailability analysis for the crystalline form AB, the crystalline form M, and the crystalline form F are presented in Table 6.

[3] = Accelerated stability test of the crystalline form M and the crystalline form F (40±2° C., RH 75±5%, open petri dish); type: physicochemical; details: for Change in purity in 3 months' accelerated stability test: before and after grinding/pulverization
Procedure: Accelerated stability test: the crystalline form M of the compound 1 was contained in a petri dish, which was placed in an open manner in a closed container (desiccator) with a relative humidity of 75±5%; the desiccator was placed in an incubator at 40±2° C. for 3 months, and small samples were taken out at 0, 1, 2, 3 months respectively for detection.
Accelerated stability test: the crystalline form F of the compound 1 was contained in a petri dish, which was put in an open manner in a closed container (desiccator) with a relative humidity of 75±5%; the desiccator was placed in an incubator at 40±2° C. for 3 months; small samples were taken out at 0, 1, 2 and 3 months respectively for detection.

[4] = 1 month, open, 40±2° C., RH 75±5%
[5] = 2 months, open, 40±2° C., RH 75±5%
[6] = 3 months, open, 40±2° C., RH 75±5%

VEGF-R2, sequence (P35968 20-1356): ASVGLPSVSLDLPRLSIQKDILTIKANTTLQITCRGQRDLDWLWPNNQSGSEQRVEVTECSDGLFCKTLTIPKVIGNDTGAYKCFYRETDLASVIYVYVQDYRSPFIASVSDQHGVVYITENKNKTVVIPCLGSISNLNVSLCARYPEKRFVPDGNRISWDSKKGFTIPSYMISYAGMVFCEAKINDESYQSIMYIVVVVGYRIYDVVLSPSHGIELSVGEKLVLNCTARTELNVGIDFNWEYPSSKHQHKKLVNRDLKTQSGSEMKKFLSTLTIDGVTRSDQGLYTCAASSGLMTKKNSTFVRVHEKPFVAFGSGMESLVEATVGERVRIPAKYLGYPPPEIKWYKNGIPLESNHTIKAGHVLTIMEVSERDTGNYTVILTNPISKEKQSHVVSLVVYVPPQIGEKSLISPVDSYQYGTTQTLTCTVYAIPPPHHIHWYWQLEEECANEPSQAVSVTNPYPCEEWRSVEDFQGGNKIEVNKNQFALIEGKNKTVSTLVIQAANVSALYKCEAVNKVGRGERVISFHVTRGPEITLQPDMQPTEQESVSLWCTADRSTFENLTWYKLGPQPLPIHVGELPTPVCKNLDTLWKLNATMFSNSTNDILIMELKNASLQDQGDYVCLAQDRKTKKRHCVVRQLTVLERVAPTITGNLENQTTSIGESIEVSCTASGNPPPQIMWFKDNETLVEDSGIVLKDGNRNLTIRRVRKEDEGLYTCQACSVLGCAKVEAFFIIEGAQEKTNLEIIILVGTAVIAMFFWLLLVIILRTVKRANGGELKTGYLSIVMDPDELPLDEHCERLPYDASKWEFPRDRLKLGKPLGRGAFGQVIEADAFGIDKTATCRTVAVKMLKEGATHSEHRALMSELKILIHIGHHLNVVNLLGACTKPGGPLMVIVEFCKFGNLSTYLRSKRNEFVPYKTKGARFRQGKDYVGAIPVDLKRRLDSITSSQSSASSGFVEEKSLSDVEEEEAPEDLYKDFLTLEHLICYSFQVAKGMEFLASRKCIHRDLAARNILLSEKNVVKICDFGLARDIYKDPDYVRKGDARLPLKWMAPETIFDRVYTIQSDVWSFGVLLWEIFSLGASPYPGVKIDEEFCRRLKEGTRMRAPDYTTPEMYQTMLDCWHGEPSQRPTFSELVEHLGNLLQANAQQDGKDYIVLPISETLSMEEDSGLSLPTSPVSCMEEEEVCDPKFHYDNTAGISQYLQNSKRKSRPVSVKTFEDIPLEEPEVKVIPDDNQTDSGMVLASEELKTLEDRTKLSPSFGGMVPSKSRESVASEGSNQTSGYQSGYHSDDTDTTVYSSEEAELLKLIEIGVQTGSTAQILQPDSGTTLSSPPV

## COc1cc2c(Oc3ccc(NC(=O)C4(C(=O)Nc5ccc(F)cc5)CC4)cc3F)ccnc2cc1OCCCCCC(=O)O [crystalline form AB, 6-[[4-[2-fluoro-4-[[1-[(4-fluorophenyl)aminoformyl]cyclopropanecarbonyl]amino]phenoxy]-6-methoxy-7-quinolyl]oxy] hexanoic acid]
VEGF-R2
  IC50: 0.38 nM
NCI-H1703 cells; 6.25 mg/kg
  Tumor growth: significantly inhibit tumor growth
  Tumor Inhibition Rate %: 87.0%
NCI-H1703 cells; 12.5 mg/kg
  Tumor growth: significantly inhibit tumor growth and tumor regression was observed for some mice
  Tumor Inhibition Rate %: 94.7%
NCI-H1703 cells; 12.5 mg/kg, 25 mg/kg and 50 mg/kg
  Tumor growth: significantly inhibited tumor growth and the number of tumor regression cases presented a gradual increase
NCI-H1703 cells; 25 mg/kg
  Tumor Inhibition Rate %: 98.5%
NCI-H1703 cells; 50 mg/kg
  Tumor Inhibition Rate %: 99.2%
[1]; 1 month
  Purity (HPLC method) Open: 99.36%
  Purity (HPLC method) Sealed: 99.32%
[1]; 2 months
  Purity (HPLC method) Open: 99.35%
  Purity (HPLC method) Sealed: 99.34%
[1]; 7 months
  Purity (HPLC method) Open: 99.36%
  Purity (HPLC method) Sealed: 99.32%
[1]; accelerated stability test, 7 months
  Stability (conclusion in words): good stability
[1]; storage time 0 month
  Purity (HPLC method): 99.35%
AXL
  IC50: 0.24 nM
MOLM-13 cells; 1.5 mg/kg, intragastric, 14 days
  Tumor Inhibition Rate %: 51.5%
MOLM-13 cells; 3 mg/kg
  Tumor growth: significantly inhibited tumor growth
MOLM-13 cells; 3 mg/kg, intragastric, 14 days
  Tumor Inhibition Rate %: 81.9%
MOLM-13 cells; 6 mg/kg or 6.25 mg/kg
  Tumor growth: inhibited tumor growth, and the tumor disappeared in some mice on day 14 after the administration
MOLM-13 cells; 6 mg/kg, intragastric, 14 days
  Tumor Inhibition Rate %: 96.7%
MOLM-13 cells; 6.25 mg/kg, intragastric, 14 days
  Tumor Inhibition Rate %: 95.6%
MOLM-13 cells; intragastric, 14 days
  median effective dose EC50: 1.5 mg/kg
[2]
  AUCInf: 2414 ng·h/mL
  AUC_% Extrap: 1.19%
  AUClast: 2399 ng·h/mL
  AUClast/D: 240 ng·h/mL per mg/kg
  Cmax: 930 ng/mL
  MRT: 1.91 h
  T1/2: 0.86 h
[2]; mouse, plasma, po, 10 mg/kg, read-out: Tmax
  Tmax: 1.33 h

## COc1cc2c(Oc3ccc(NC(=O)C4(C(=O)Nc5ccc(F)cc5)CC4)cc3F)ccnc2cc1OCCCCCC(=O)O [crystalline form F, 6-[[4-[2-fluoro-4-[[1-[(4-fluorophenyl)aminoformyl]cyclopropanecarbonyl]amino]phenoxy]-6-methoxy-7-quinolyl]oxy] hexanoic acid]
[3]; 0 month
  Purity (HPLC method) After grinding: 99.13%
  Purity (HPLC method) Before grinding: 99.13%
[3]; [4]
  Purity (HPLC method) After grinding: 99.32%
  Purity (HPLC method) Before grinding: 99.33%
[3]; [5]
  Purity (HPLC method) After grinding: 99.07%
  Purity (HPLC method) Before grinding: 99.09%
[3]; [6]
  Purity (HPLC method) After grinding: 99.06%
  Purity (HPLC method) Before grinding: 99.07%
[3]
  Change in purity in 3 months' accelerated stability test: substantially no change in purity
[2]
  AUCInf: 675 ng·h/mL
  AUC_% Extrap: 22.7%
  AUClast: 505 ng·h/mL
  AUClast/D: 50.5 ng·h/mL per mg/kg
  Cmax: 201 ng/mL
  MRT: 3.05 h
  T1/2: 1.7 h
  Tmax: 1.5 h

## COc1cc2c(Oc3ccc(NC(=O)C4(C(=O)Nc5ccc(F)cc5)CC4)cc3F)ccnc2cc1OCCCCCC(=O)O [crystalline form M, 6-[[4-[2-fluoro-4-[[1-[(4-fluorophenyl)aminoformyl]cyclopropanecarbonyl]amino]phenoxy]-6-methoxy-7-quinolyl]oxy] hexanoic acid]
[3]; 0 month
  Purity (HPLC method) After grinding: 99.22%
  Purity (HPLC method) Before grinding: 99.21%
[3]; [4]
  Purity (HPLC method) After grinding: 99.37%
  Purity (HPLC method) Before grinding: 99.36%
[3]; [5]
  Purity (HPLC method) After grinding: 99.17%
  Purity (HPLC method) Before grinding: 99.16%
[3]; [6]
  Purity (HPLC method) After grinding: 99.19%
  Purity (HPLC method) Before grinding: 99.19%
[3]
  Change in purity in 3 months' accelerated stability test: substantially no change in purity
[2]
  AUCInf: 1110 ng·h/mL
  AUC_% Extrap: 39%
  AUClast: 581 ng·h/mL
  AUClast/D: 58.1 ng·h/mL per mg/kg
  Cmax: 200 ng/mL
  MRT: 5.65 h
  T1/2: 3.61 h
  Tmax: 0.917 h
